Measurements as given in patent publication US20160106102A1, “KNOWN AND NEW HETEROCYCLIC COMPOUNDS AS PEST CONTROL AGENTS” (BAYER CROPSCIENCE AKTIENGESELLSCHAFT, priority 2013, published 2016).

Tested on: not listed separately
Experiment: log P determination by LC-MS in the acidic range
Format: physicochemical
Details: LC-MS in the acidic range
Description: The LC-MS determination in the acidic range is effected at pH 2.7 using 0.1% aqueous formic acid and acetonitrile (contains 0.1% formic acid) as eluents, linear gradient from 10% acetonitrile to 95% acetonitrile. Alternatively, the determination is effected in the acidic range at pH 2.3 using 0.1% aqueous phosphoric acid and acetonitrile as eluents; linear gradient from 10% acetonitrile to 95% acetonitrile.

`Cn1nc(NC(=O)c2cccnc2)c(Br)c1OC(F)F` [Compound I-1-47] and `Cn1nc(NC(=O)c2cccnc2)c(Cl)c1OC(F)F` [Compound I-1-275] are within 0.2 log units of each other in “log P (acid)” value: 1.13 for the first, 1.19 for the second.

First: CCOC(=O)Cn1nc(NC(=O)c2cncc(F)c2)cc1C [Compound I-1-59]
Second: Cc1cc(NC(=O)c2cncc(F)c2)nn1CC(=O)O [Compound I-1-114]
The “log P (acid)” value of the first is higher: 1.53 for the first, 0.87 for the second.

`COc1ccc(C(=O)Nc2cc(C)n(Cc3cccc(F)c3)n2)cn1` [Compound I-1-94] and `Cc1cc(NC(=O)c2ccc(Cl)nc2)nn1Cc1cccc(F)c1` [Compound I-1-106] are within 0.2 log units of each other in “log P (acid)” value: 2.51 for the first, 2.6 for the second.

`Cc1cc(NC(=O)c2cnc(Cl)c(Cl)c2)nn1Cc1cccc(F)c1` [Compound I-1-96] and `Cc1cc(NC(=O)c2cnc(Cl)c(Cl)c2)nn1Cc1ccc(F)cc1` [Compound I-1-97] are within 0.2 log units of each other in “log P (acid)” value: 3.26 for the first, 3.23 for the second.

Going from `Cc1cc(NC(=O)c2ccc(Cl)nc2)nn1Cc1ccccc1` [Compound I-1-98] to `Cc1ccc(C(=O)Nc2cc(C)n(Cc3ccccc3F)n2)cn1` [Compound I-1-102], the “log P (acid)” value falls from 2.48 to 1.73.

`Cc1cc(NC(=O)c2cncc(Br)c2)nn1Cc1ccccc1F` [Compound I-1-101] and `Cc1cc(NC(=O)c2cncc(Br)c2)nn1Cc1cccc(F)c1` [Compound I-1-107] are within 0.2 log units of each other in “log P (acid)” value: 2.69 for the first, 2.71 for the second.

Compared with `Cc1cc(NC(=O)c2cnc(Cl)c(Cl)c2)nn1Cc1ccccc1F` [Compound I-1-103], `COc1ccc(C(=O)Nc2cc(C)n(Cc3ccccc3F)n2)cn1` [Compound I-1-105] is lower in “log P (acid)” value: 3.28 for the first, 2.52 for the second.

Compared with `Cc1ccc(C(=O)Nc2cc(C)n(Cc3ccc(F)cc3)n2)cn1` [Compound I-1-109], `COc1ccc(C(=O)Nc2cc(C)n(Cc3ccc(F)cc3)n2)cn1` [Compound I-1-110] is higher in “log P (acid)” value: 1.76 for the first, 2.47 for the second.

`Cn1nc(NC(=O)c2cncc(F)c2)c(Br)c1OC(F)F` [Compound I-1-113] and `Cn1nc(NC(=O)c2cncc(F)c2)cc1C(F)F` [Compound I-1-222] are within 0.2 log units of each other in “log P (acid)” value: 1.67 for the first, 1.51 for the second.

Going from `Cc1cc(NC(=O)c2cccnc2)nn1CC(=O)O` [Compound I-1-115] to `CCCNS(=O)(=O)n1nc(NC(=O)c2cccnc2)cc1C` [Compound I-1-258], the “log P (acid)” value rises from 0.09 to 1.07.

`N#Cc1ccccc1-n1ccc(NC(=O)c2cccnc2)n1` [Compound I-1-117] and `COc1ccc(-n2ccc(NC(=O)c3cccnc3)n2)cc1` [Compound I-1-271] are within 0.2 log units of each other in “log P (acid)” value: 1.42 for the first, 1.6 for the second.

Compared with `Cc1cc(NC(=O)c2cccnc2)nn1C(=O)c1cccc(Cl)c1` [Compound I-1-127], `Cc1cc(NC(=O)c2cccnc2)nn1-c1ccc(Cl)c(Cl)c1` [Compound I-1-206] is higher in “log P (acid)” value: 1.92 for the first, 2.59 for the second.

Compared with `O=C(Nc1nn(Cc2ncccn2)cc1Cl)c1cccnc1` [Compound I-1-137], `Cc1cc(NC(=O)c2cccnc2)nn1-c1ccccn1` [Compound I-1-230] is higher in “log P (acid)” value: 0.58 for the first, 2.19 for the second.

Going from `Cn1nc(NC(=O)c2cccnc2)c(C#N)c1[S+](C)[O-]` (stereo not drawn) [Compound I-1-141] to `CSc1c(Cl)c(NC(=O)c2cccnc2)nn1C` [Compound I-1-201], the “log P (acid)” value rises from 0.06 to 1.25.

Going from `Cc1cc(NC(=O)c2ccnnc2)nn1Cn1nc(C2CC2)n(C2CC2)c1=O` [Compound I-1-150] to `Cc1cc(NC(=O)c2ccnnc2)nn1Cn1nc(C)n(C2CC2)c1=O` [Compound I-1-151], the “log P (acid)” value falls from 1.33 to 0.92.

`COc1nn(Cn2nc(NC(=O)c3ccnnc3)cc2C)c(=O)n1C1CC1` [Compound I-1-152] and `Cc1cnn(Cn2nc(NC(=O)c3ccnnc3)cc2C)c1` [Compound I-1-256] are within 0.2 log units of each other in “log P (acid)” value: 1.17 for the first, 1.1 for the second.

First: Cc1ccc(-n2nc(NC(=O)c3cccnc3)cc2C)cc1 [Compound I-1-193]
Second: COc1ccc(-n2nc(NC(=O)c3cccnc3)cc2C)cc1 [Compound I-1-200]
The “log P (acid)” value of the first is higher: 2.02 for the first, 1.34 for the second.

First: Cc1cc(NC(=O)c2ccnnc2)nn1Cn1cccn1 [Compound I-1-240]
Second: Cc1cc(NC(=O)c2ccnnc2)nn1Cn1ccc(C(F)(F)F)n1 [Compound I-1-255]
The “log P (acid)” value of the first is lower: 0.91 for the first, 1.73 for the second.

Compared with `Cc1cc(C)nc(-n2nc(NC(=O)c3ccnnc3)cc2C)n1` [Compound I-1-248], `Cc1cc(C)nc(Cn2nc(NC(=O)c3ccnnc3)cc2C)n1` [Compound I-1-251] is lower in “log P (acid)” value: 1.53 for the first, 1.14 for the second.

Going from `Cc1cc(NC(=O)c2ccnnc2)nn1CC(F)(F)F` [Compound I-1-250] to `Cc1ccnc(Cn2nc(NC(=O)c3ccnnc3)cc2C)n1` [Compound I-1-253], the “log P (acid)” value falls from 1.2 to 0.88.

`COc1cc(OC)nc(Cn2nc(NC(=O)c3ccnnc3)cc2C)n1` [Compound I-1-252] and `Cc1cc(NC(=O)c2ccnnc2)nn1Cc1ncccc1Cl` [Compound I-1-254] are within 0.2 log units of each other in “log P (acid)” value: 1.5 for the first, 1.33 for the second.

First: CCOC(=O)c1cn(Cc2ccccc2)nc1NC(=O)c1cccnc1 [Compound I-1-272]
Second: Cc1nn(-c2ccccc2)nc1Cn1nc(NC(=O)c2cccnc2)cc1C [Compound I-1-303]
The “log P (acid)” value of the first is lower: 0.79 for the first, 2.33 for the second.

First: O=C(Nc1ccn(-c2nccs2)n1)c1cccnc1 [Compound I-1-273]
Second: Cc1cc(F)c(Cn2nc(NC(=O)c3cccnc3)cc2C)cc1SCC(F)(F)F [Compound I-1-337]
The “log P (acid)” value of the first is lower: 1.16 for the first, 2.89 for the second.

In the case of `Cc1cc(N(Cc2ccc3nsnc3c2)C(=O)c2cccnc2)nn1Cc1ccc2nsnc2c1` [Compound I-1-343], the “log P (acid)” value is reported as 2.57.

Same assay, conditions: Table 2, compounds of the formula (I-2); acidic range pH 2.7 or pH 2.3

First: Cc1nc(NC(=O)c2cccnc2)nn1Cc1ncccn1 [Compound I-2-2]
Second: O=C(Nc1ncn(-c2c(Cl)cc(S(=O)(=O)C(F)(F)F)cc2Cl)n1)c1cccnc1 [Compound I-2-3]
The “log P (acid)” value of the first is lower: −0.05 for the first, 2.02 for the second.

Same assay, conditions: pH 2.7, LC-MS in the acidic range; read-out: log P (acid)

`Cn1nc(NC(=O)c2cncc(F)c2)cc1OC(F)F` [Compound I-1-112, N-[5-(Difluoromethoxy)-1-methyl-1H-pyrazol-3-yl]-5-fluoronicotinamide] and `COC(=O)c1cc(NC(=O)c2cncc(F)c2)nn1C` [Compound I-1-134, Methyl 3-{[(5-fluoropyridin-3-yl)carbonyl]amino}-1-methyl-1H-pyrazole-5-carboxylate] are within 0.2 log units of each other in chromatographic logP: 1.56 for the first, 1.5 for the second.

Going from `O=C(Nc1ccn(Cc2ncc(C(F)(F)F)cc2Cl)n1)c1ccc(Cl)nc1` [Compound I-1-118, 6-Chloro-N-(1-{[3-chloro-5-(trifluoromethyl)pyridin-2-yl]methyl}-1H-pyrazol-3-yl)nicotinamide] to `Cc1cc(NC(=O)c2cccnc2)nn1C(=O)C1CC1` [Compound I-1-121, N-[1-(Cyclopropylcarbonyl)-5-methyl-1H-pyrazol-3-yl]nicotinamide], the chromatographic logP falls from 2.64 to 1.65.

Same assay, conditions: pH 2.7, values given in the synthesis examples and NMR lists; read-out: HPLC-MS: log P

Going from `CCSCn1nc([N+](=O)[O-])cc1C` [1-[(Ethylsulphanyl)methyl]-5-methyl-3-nitro-1H-pyrazole] to `Cc1cc([N+](=O)[O-])nn1-c1ncccn1` [2-(5-Methyl-3-nitro-1H-pyrazol-1-yl)pyrimidine], the chromatographic logP falls from 2.21 to 1.41.

Compared with `Cc1c[nH]nc1N1C(=O)c2ccccc2C1=O` [2-(4-Methyl-1H-pyrazol-3-yl)-1H-isoindole-1,3(2H)-dione], `O=C1c2ccccc2C(=O)N1c1cc(Br)[nH]n1` [2-(5-Bromo-1H-pyrazol-3-yl)-1H-isoindole-1,3(2H)-dione] is higher in chromatographic logP: 1.34 for the first, 1.83 for the second.

Compared with `Cc1cn(Cc2ncccn2)nc1N1C(=O)c2ccccc2C1=O` [2-[4-Methyl-1-(pyrimidin-2-ylmethyl)-1H-pyrazol-3-yl]-1H-isoindole-1,3(2H)-dione], `O=C1c2ccccc2C(=O)N1c1cc(Br)n(Cc2ncccn2)n1` [2-[5-Bromo-1-(pyrimidin-2-ylmethyl)-1H-pyrazol-3-yl]-1H-isoindole-1,3(2H)-dione] is higher in chromatographic logP: 1.58 for the first, 2.02 for the second.

`O=[N+]([O-])c1ccn(Cc2ncc(C(F)(F)F)cc2Cl)n1` [3-Chloro-2-[(3-nitro-1H-pyrazol-1-yl)methyl]-5-(trifluoromethyl)pyridine] and `O=C(Nc1ccn(Cc2ncc(C(F)(F)F)cc2Cl)n1)c1ccc(Cl)nc1` [Compound I-1-118, 6-Chloro-N-(1-{[3-chloro-5-(trifluoromethyl)pyridin-2-yl]methyl}-1H-pyrazol-3-yl)nicotinamide] are within 0.2 log units of each other in chromatographic logP: 2.67 for the first, 2.64 for the second.

Going from `Cc1cn(Cc2ncccn2)nc1N` [4-Methyl-1-(pyrimidin-2-ylmethyl)-1H-pyrazole-3-amine] to `Cc1cc(C(=O)O)nn1Cc1ncccn1` [5-Methyl-1-(pyrimidin-2-ylmethyl)-1H-pyrazole-3-carboxylic acid], the chromatographic logP rises from -0.22 to 0.45.

Going from `Cc1cc(N)nn1-c1ncccn1` [5-Methyl-1-(pyrimidin-2-yl)-1H-pyrazole-3-amine] to `Cc1nn(-c2ccccn2)nc1N` [5-Methyl-2-(pyridin-2-yl)-2H-1,2,3-triazol-4-amine], the chromatographic logP rises from 0.5 to 0.74.

`Cn1nc(NC(=O)c2cncc(F)c2)cc1OC(F)F` [Compound I-1-112, N-[5-(Difluoromethoxy)-1-methyl-1H-pyrazol-3-yl]-5-fluoronicotinamide] and `COC(=O)c1cc(NC(=O)c2cncc(F)c2)nn1C` [Compound I-1-134, Methyl 3-{[(5-fluoropyridin-3-yl)carbonyl]amino}-1-methyl-1H-pyrazole-5-carboxylate] are within 0.2 log units of each other in chromatographic logP: 1.56 for the first, 1.5 for the second.

Work on `Cc1cc(NC(=O)c2cccnc2)nn1C(=O)C1CC1` [Compound I-1-121, N-[1-(Cyclopropylcarbonyl)-5-methyl-1H-pyrazol-3-yl]nicotinamide] yielded a chromatographic logP of 1.65.

Tested on: Myzus persicae
Experiment: Myzus persicae - sachet test
Format: in vivo
Details: application rate of 6 ppm in nutrient medium; 100% = all animals killed
Protocol: Myzus persicae—Sachet Test Solvent: 2% by vol. of N-methylpyrrolidone • 2% by vol. of diacetone alcohol To produce an appropriate active ingredient formulation, the active ingredient is mixed with the specified amounts of solvent and the concentrate is diluted to the desired concentration with water. The active ingredient formulation is added to a specific nutrient medium in the desired concentration by pipetting. This plate is sealed and combined with a further plate populated with the green peach aphid (Myzus persicae). After the desired time, the kill in % is determined. 100% means that all the animals have been killed; 0% means that no animals have been killed.

`COC(=O)CCCn1nc(NC(=O)c2cccnc2)cc1C` [Compound I-1-67] and `O=C(Nc1ccn(-c2ccc(F)cc2F)n1)c1cccnc1` [Compound I-1-85] are the same in “efficacy (kill in %)” value: 100% for the first, 100% for the second.

Same assay, conditions: application rate of 30 ppm in nutrient medium; 100% = all animals killed

`COC(=O)CCCn1nc(NC(=O)c2cccnc2)cc1C` [Compound I-1-67] and `CCOC(=O)Cn1ccc(NC(=O)c2cccnc2)n1` [Compound I-1-69] are the same in “efficacy (kill in %)” value: 100% for the first, 100% for the second.

`O=C(Nc1ccn(Cc2ccc(Cl)cc2Cl)n1)c1cccnc1` [Compound I-1-82] and `O=C(Nc1ccn(-c2ccc(F)cc2F)n1)c1cccnc1` [Compound I-1-85] are the same in “efficacy (kill in %)” value: 100% for the first, 100% for the second.

With `CCn1nnc(NC(=O)c2cccnc2)n1` [Compound I-4-1] the “efficacy (kill in %)” value was 100%.
